Results: PubChem BioAssay AID1259411 (Chemical Carcinogenesis Research Information System (CCRIS), 2018)
Active and inactive are the calls of the source. How the calls were made is not given here.

System: rodent carcinogenicity bioassays, tumor incidence
Test: CCRIS carcinogenicity studies
Details: Dose: 0, Dose: 0
Outline: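 NCI-built, expert-reviewed records of carcinogenicity and related test outcomes (mutagenicity, tumor promotion/inhibition) compiled from published and report sources, historical span 1985-2011, not updated.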

Measured: carcinogen call

C1=Cc2cc3ccccc3c3cccc1c23
inactive: Species: MOUSE, Strain/Sex: BLU:HA/FEMALE, Route: INTRAPERITONEAL, 175, 437.5 UG/KG/D ON DAYS 1 (1/7 TOTAL DOSE), 8 (2/7 TOTAL DOSE), AND 15 (4/7 TOTAL DOSE) AFTER BIRTH (STUDY DURATIO, 175, 437.5 UG/KG/D ON DAYS 1 (1/7 TOTAL DOSE), 8 (2/7 TOTAL DOSE), AND 15 (4/7 TOTAL DOSE) AFTER BIRTH (STUDY DURATIO inactive; negative | Species: MOUSE, Strain/Sex: CD-1/FEMALE, Route: INTRAPERITONEAL, 175, 437.5, 875 UG/KG/D ON DAYS 1 (1/7 TOTAL DOSE), 8 (2/7 TOTAL DOSE), AND 15 (4/7 TOTAL DOSE) AFTER BIRTH (STUDY DU, 175, 437.5, 875 UG/KG/D ON DAYS 1 (1/7 TOTAL DOSE), 8 (2/7 TOTAL DOSE), AND 15 (4/7 TOTAL DOSE) AFTER BIRTH (STUDY DU inactive; negative
active: Species: MOUSE, Strain/Sex: BLU:HA/MALE, Route: INTRAPERITONEAL, 175, 437.5 UG/KG/D ON DAYS 1 (1/7 TOTAL DOSE), 8 (2/7 TOTAL DOSE), AND 15 (4/7 TOTAL DOSE) AFTER BIRTH (STUDY DURATIO, 175, 437.5 UG/KG/D ON DAYS 1 (1/7 TOTAL DOSE), 8 (2/7 TOTAL DOSE), AND 15 (4/7 TOTAL DOSE) AFTER BIRTH (STUDY DURATIO, Tumor Site: Type of Lesion: LUNG: ADENOMA active; positive | Species: MOUSE, Strain/Sex: CD-1/MALE, Route: INTRAPERITONEAL, 175, 437.5, 875 UG/KG/D ON DAYS 1 (1/7 TOTAL DOSE), 8 (2/7 TOTAL DOSE), AND 15 (4/7 TOTAL DOSE) AFTER BIRTH (STUDY DU, 175, 437.5, 875 UG/KG/D ON DAYS 1 (1/7 TOTAL DOSE), 8 (2/7 TOTAL DOSE), AND 15 (4/7 TOTAL DOSE) AFTER BIRTH (STUDY DU, Tumor Site: Type of Lesion: LUNG: ADENOMA OR ADENOCARCINOMA, LIVER: TUMOR active; positive

CCCNN
active: Species: MOUSE, Strain/Sex: SWISS/FEMALE, Route: ORAL, 0.025% SOLUTION IN DRINKING WATER DAILY FOR LIFE FOR AND AVERAGE DAILY INTAKE OF 0, 3.0 MG (STUDY DURATION: 100 WK), 0.025% SOLUTION IN DRINKING WATER DAILY FOR LIFE FOR AND AVERAGE DAILY INTAKE OF 0, 3.0 MG (STUDY DURATION: 100 WK), Tumor Site: Type of Lesion: LUNG: ADENOMA, LUNG: ADENOMA OR ADENOCARCINOMA active; positive | Species: MOUSE, Strain/Sex: SWISS/MALE, Route: ORAL, 0.025% SOLUTION IN DRINKING WATER DAILY FOR LIFE FOR AN AVERAGE DAILY INTAKE OF 0, 2.9 MG (STUDY DURATION: 100 WK), 0.025% SOLUTION IN DRINKING WATER DAILY FOR LIFE FOR AN AVERAGE DAILY INTAKE OF 0, 2.9 MG (STUDY DURATION: 100 WK), Tumor Site: Type of Lesion: LUNG: ADENOMA, LUNG: ADENOMA OR ADENOCARCINOMA active; positive

CCCN(CCC)c1c([N+](=O)[O-])cc(C(F)(F)F)cc1[N+](=O)[O-]
inactive: Species: MOUSE, Strain/Sex: B6C3F1/FEMALE, Route: ORAL, 563, 2250, 4500 PPM IN DIET FOR 2 YR (STUDY DURATION: 2 YR), 563, 2250, 4500 PPM IN DIET FOR 2 YR (STUDY DURATION: 2 YR) inactive; negative | Species: MOUSE, Strain/Sex: B6C3F1/MALE, Route: ORAL, 563, 2250, 4500 PPM IN DIET FOR 2 YR (STUDY DURATION: 2 YR), 563, 2250, 4500 PPM IN DIET FOR 2 YR (STUDY DURATION: 2 YR) inactive; negative | Species: MOUSE, Strain/Sex: B6C3F1/MALE, Route: ORAL, 2000, 3744 PPM IN DIET, TWA, 2000, 3744 PPM IN DIET, TWA inactive; negative | Species: MOUSE, Strain/Sex: NMRI/FEMALE, Route: ORAL, 50, 200, 800 MG/KG IN DIET FOR 104 WK (STUDY DURATION: 104 WK), 50, 200, 800 MG/KG IN DIET FOR 104 WK (STUDY DURATION: 104 WK) inactive; negative | Species: MOUSE, Strain/Sex: NMRI/MALE, Route: ORAL, 50, 200, 800 MG/KG IN DIET FOR 104 WK (STUDY DURATION: 104 WK), 50, 200, 800 MG/KG IN DIET FOR 104 WK (STUDY DURATION: 104 WK) inactive; negative | Species: RAT, Strain/Sex: OSBORNE-MENDEL/FEMALE, Route: ORAL, 4125, 7917 PPM IN DIET, TWA, 4125, 7917 PPM IN DIET, TWA inactive; negative | Species: RAT, Strain/Sex: OSBORNE-MENDEL/MALE, Route: ORAL, 4125, 8000 PPM IN DIET, TWA, 4125, 8000 PPM IN DIET, TWA inactive; negative | Species: RAT, Strain/Sex: WISTAR/FEMALE, Route: ORAL, 200, 800, 3200 MG/KG IN DIET FOR 122 WK (STUDY DURATION: 122 WK), 200, 800, 3200 MG/KG IN DIET FOR 122 WK (STUDY DURATION: 122 WK) inactive; negative | Species: RAT, Strain/Sex: WISTAR/MALE, Route: ORAL, 200, 800, 3200 MG/KG IN DIET FOR 122 WK (STUDY DURATION: WK), 200, 800, 3200 MG/KG IN DIET FOR 122 WK (STUDY DURATION: WK) inactive; negative
active: Species: MOUSE, Strain/Sex: B6C3F1/FEMALE, Route: ORAL, 2740, 5192 PPM IN DIET, TWA, 2740, 5192 PPM IN DIET, TWA, Tumor Site: Type of Lesion: LUNG: ALVEOLAR/BRONCHIOLAR ADENOMA OR CARCINOMA, LIVER: HEPATOCELLULAR ADENOMA OR CARCINOMA active; positive

CC(=O)O[C@@H]1[C@@H](O)[C@H]2O[C@@H]3C=C(C)C(=O)[C@@H](O)[C@]3(CO)[C@]1(C)[C@]21CO1
inactive: Species: MOUSE, Strain/Sex: BDF1/FEMALE, Route: GAVAGE, 3.5 MG/KG 1/4 WK FOR 1 YR (STUDY DURATION: 2 YR) inactive; negative | Species: MOUSE, Strain/Sex: BDF1/FEMALE, Route: GAVAGE, 3.5 MG/KG 1/8 WK FOR 1 YR (STUDY DURATION: 2 YR) inactive; negative

CCN(CC)C(=O)N(C)N=O
active: Species: HAMSTER, Strain/Sex: SYRIAN/FEMALE, Route: SUBCUTANEOUS, 7.75, 14.15, 28.3, 56.6 MG/KG IN 0.1 ML OLIVE OIL 1/WK FOR 52 WK (STUDY DURATION: LIFESPAN), 7.75, 14.15, 28.3, 56.6 MG/KG IN 0.1 ML OLIVE OIL 1/WK FOR 52 WK (STUDY DURATION: LIFESPAN), Tumor Site: Type of Lesion: NASAL CAVITY: SQUAMOUS CELL CARCINOMA, SPLEEN: HEMANGIOENDOTHELIOMA, FORESTOMACH: SQUAMOUS CELL CARCINOMA, PAPILLOMA, Tumor Site: Type of Lesion: NASAL CAVITY: SQUAMOUS CELL CARCINOMA, SPLEEN: HEMANGIOENDOTHELIOMA, FORESTOMACH: SQUAMOUS CELL CARCINOMA, PAPILLOMA active; positive | Species: HAMSTER, Strain/Sex: SYRIAN/MALE, Route: GAVAGE, 40 MG/ML ((0.2 ML OF A SOLUTION IN ETHYL ACETATE/CORN OIL (1:2)) 1/WK FOR 25 WK (STUDY DURATION: LIFE SPAN), Tumor Site: Type of Lesion: LIVER: HEMANGIOSARCOMA, CHOLANGIOMA OR CARCINOMA, SPLEEN: HEMANGIOSARCOMA, FORESTOMACH: SQUAMOUS CELL CARCINOMA OR PAPIL, Tumor Site: Type of Lesion: LIVER: HEMANGIOSARCOMA, CHOLANGIOMA OR CARCINOMA, SPLEEN: HEMANGIOSARCOMA, FORESTOMACH: SQUAMOUS CELL CARCINOMA OR PAPIL active; positive | Species: HAMSTER, Strain/Sex: SYRIAN/MALE, Route: SUBCUTANEOUS, 7.75, 14.15, 28.3, 56.6 MG/KG IN 0.1 ML OLIVE OIL 1/WK FOR 52 WK (STUDY DURATION: LIFESPAN), 7.75, 14.15, 28.3, 56.6 MG/KG IN 0.1 ML OLIVE OIL 1/WK FOR 52 WK (STUDY DURATION: LIFESPAN), Tumor Site: Type of Lesion: NASAL CAVITY: SQUAMOUS CELL CARCINOMA, SPLEEN: HEMANGIOENDOTHELIOMA, FORESTOMACH: SQUAMOUS CELL CARCINOMA, PAPILLOMA, Tumor Site: Type of Lesion: NASAL CAVITY: SQUAMOUS CELL CARCINOMA, SPLEEN: HEMANGIOENDOTHELIOMA, FORESTOMACH: SQUAMOUS CELL CARCINOMA, PAPILLOMA active; positive
